Experimental findings from the METLIN SMRT retention time set (Domingo-Almenara et al. 2019) are described below.

This data set in a line: gradient 5% acetonitrile 3 min, to 50% in 2 min, to 85% in 15 min, held 3 min, 100 µL/min. Particulars: column: Zorbax Extend-C18 2.1 x 50 mm; eluents: water / acetonitrile, 0.1% formic acid. The gist of the method: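 In both positive and negative ionization mode, a quadrupole time-of-flight mass spectrometer coupled to HPLC analyzed pure standards run in mixtures of ~100 molecules. The Zorbax Extend-C18 column (2.1 × 50 mm, 1.8 μm) was operated at 100 μL/min with water and acetonitrile, each containing 0.1% formic acid. The dead volume was 40 μL and the dwell volume 900 μL. Retention time came from adduct peaks that were computationally picked and individually inspected by hand.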
In turn, `O=S(=O)(c1ccc(-c2noc(-c3ccc(F)c(F)c3)n2)cc1)N1CCOCC1` yielded an RP-LC retention time of 1110 s.

`CCN1CCCC1CNC(=O)c1nnc(-c2oc3c(C)cccc3c2C)o1` (centres undefined) showed an RP-LC retention time of 725 s.

Consider `Cc1ccc(NC(=O)C2CCN(S(=O)(=O)c3ccc4c(c3)CCCC(=O)N4)CC2)cc1N(C)C`, for which the RP-LC retention time stood at 698 s.

Consider `Cc1sc2nc(SCC(=O)Nc3ccc(S(N)(=O)=O)cc3)nc(N)c2c1C`, for which the RP-LC retention time worked out at 682 s.

`CNC(=O)CCC[C@@H]1[C@H]2CCCN3CCC[C@@H](CN1C(=O)CC(C)C)[C@@H]23` displayed an RP-LC retention time of 568 s.

`COc1ccc(-c2nnc(-c3cc(S(=O)(=O)N4CCCCC4)ccc3Cl)o2)cc1` showed an RP-LC retention time of 1150 s.

Compound `Cn1cnc(S(=O)(=O)N2CCC(C(=O)NCc3cccs3)CC2)c1` had an RP-LC retention time of 640 s.

With `CCOc1ccc(NS(=O)(=O)c2cc(C(=O)Nc3ccc(F)cc3)n[nH]2)cc1`, the RP-LC retention time was found to be 851 s.

Compound `Fc1ccc(-c2noc(Cc3nc(-c4ccc(Cl)cc4)cs3)n2)cc1` came in with an RP-LC retention time of 1310 s.

`COc1ccc(-c2noc(C3CCCN3C(=O)CNC(=O)c3ccccc3)n2)cc1` (centres undefined) had an RP-LC retention time of 792 s.

In turn, `O=C1NC2(CCN(C(=O)c3ccccc3)CC2)N=C1c1cccc(F)c1` came in with an RP-LC retention time of 748 s.

Turning to `CCOC(=O)C1CCN(c2cc3c(cc2NC(=O)NCc2ccc(C)cc2)n(C)c(=O)n3C)CC1`, the RP-LC retention time worked out at 842 s.

On to `Cn1nccc1C(=O)NCc1ccc(-c2nc(-c3cccs3)no2)s1`, for which the RP-LC retention time was determined as 858 s.

As for `O=S(=O)(c1ccccc1)N1CCC(c2noc(-c3ccc(F)cc3)n2)CC1`, the RP-LC retention time came to 791 s.

Take `COc1ccc(C(=O)N2CC(n3cc(COCC4CC4)nn3)C2)c(OC)n1`: the RP-LC retention time amounted to 718 s.

`O=C(c1ccc(Cl)s1)N1CCc2nc(-c3ccc(Cl)cc3)ncc2C1` registered an RP-LC retention time of 1210 s.

In the case of `COc1ccc(-c2csc(Nc3ccc(C(=O)O)cc3)n2)cc1`, the RP-LC retention time is 876 s.

`Cc1ccc(C)c(NC(=O)C2CCN(S(C)(=O)=O)c3cc(C)ccc3O2)c1` (centres undefined) came in with an RP-LC retention time of 998 s.

`COc1ccc(-c2nnc3sc(-c4cc(C)on4)nn23)cc1`: the RP-LC retention time worked out at 864 s.

On to `CCC1Oc2ccc(S(=O)(=O)N3CCC(C(=O)Nc4ccccc4F)CC3)cc2NC1=O` (centres undefined), for which the RP-LC retention time was determined as 812 s.

The compound `Cc1ccc(C)c(CNC(=O)C2(c3ccc(NS(C)(=O)=O)cc3)CCCCC2)c1` returned an RP-LC retention time of 973 s.

For `O=C(c1ccc2ccccc2n1)N1CCN(c2cc(-c3cccs3)[nH]n2)CC1`, the RP-LC retention time is 752 s.

Compound `CCCCc1ccc(NC(=O)CSc2cc(N3CCC(C(=O)NCCC)CC3)ncn2)cc1` came in with an RP-LC retention time of 967 s.

Compound `O=C(NCCCN1CCCC1=O)c1cccc(N2CCNC(c3ccccc3)C2)n1` (centres undefined) registered an RP-LC retention time of 590 s.

In turn, `Cn1ncc(N2CCCC(C(=O)NCc3ccc(F)c(Cl)c3)C2)cc1=O` (centres undefined) registered an RP-LC retention time of 726 s.

For the compound `Cc1ccc(-c2nc(-c3ccc(-c4noc(CNC(=O)Cc5ccccc5)n4)cc3)cs2)s1`, the RP-LC retention time was found to be 1200 s.

With `Cc1cccn2c(=O)cc(CN(Cc3ccccc3)Cc3ccco3)nc12`, the RP-LC retention time came to 676 s.

`CCOC(=O)c1[nH]c(C)c(CCC(=O)N2CCC(C(=O)NCc3ccccc3OCC)CC2)c1C` gave an RP-LC retention time of 832 s.

Turning to `CCn1cc(-c2nc(C(=O)NCc3ccc(OC)cc3)cs2)c2cccnc21`, the RP-LC retention time worked out at 958 s.

In turn, `COc1ccccc1N1CCN(S(=O)(=O)CCNC(=O)CCCc2ccccc2)CC1` came in with an RP-LC retention time of 832 s.

In the case of `CCc1ccc(NC(=O)C2Cc3cc(S(=O)(=O)N4CCCCC4)ccc3N2C(C)=O)cc1` (centres undefined), the RP-LC retention time was 864 s.

In the case of `COc1ccc(C(C)NC(=O)C2CCN(c3nccnc3Sc3ccc(C)cc3)CC2)cc1` (centres undefined), the RP-LC retention time amounted to 1060 s.

The compound `COc1ncccc1CNC(=O)CCc1c(C)noc1C` showed an RP-LC retention time of 556 s.

Take `O=C(Nc1cnc(-c2ccccc2)nc1)c1ccc(Cl)cc1`: the RP-LC retention time was found to be 1050 s.

The compound `COc1ccc(NC(=O)CN2C(=O)NC3(CCCCC3)C2=O)cc1` gave an RP-LC retention time of 723 s.

As for `COCCCNC(=O)C1CCCN(c2nnc(C)c3c(C)n(-c4ccc(OC)cc4)nc23)C1` (centres undefined), the RP-LC retention time came to 633 s.

`CCOc1ccc(-c2noc(CN3N=NC4C(=O)N(c5ccc(C(C)C)cc5)C(=O)C43)n2)cc1OC` (centres undefined) displayed an RP-LC retention time of 1060 s.

Compound `CCc1nnc(-c2ccc(NC(=O)CCc3ccc(OC)cc3)cc2)o1` yielded an RP-LC retention time of 795 s.

Take `O=C(c1ccco1)N1CCC(OC2CCN(Cc3ccccc3)CC2)CC1`: the RP-LC retention time came out at 595 s.

Turning to `CCC(NC(=O)Cc1cn(C)c2ncccc12)c1cccs1` (centres undefined), the RP-LC retention time is 709 s.

`CC(C)(C)C(O)CCNC(=O)c1ccc(C(F)(F)F)cc1` (centres undefined) registered an RP-LC retention time of 813 s.

With `Cc1cc(C(=O)NCC(C)C)n[nH]1`, the RP-LC retention time turned out to be 629 s.

For the compound `CCCC(C)NC(=O)c1ccc(Cl)c(Cl)c1` (centres undefined), the RP-LC retention time worked out at 1130 s.

The compound `O=C(NC1CCN(c2cc(-c3cccs3)[nH]n2)C1)c1ccc2[nH]ccc2c1` (centres undefined) had an RP-LC retention time of 672 s.

As for `CCCN(C(=O)Nc1cc(C)cc(C)c1)c1nc(-c2ccc(C3CCCCC3)cc2)cs1`, the RP-LC retention time is 856 s.

Compound `CNC(=O)c1cc(-c2ccc(OC)cc2)n(C)c1C` gave an RP-LC retention time of 783 s.

As to `Cc1noc(C)c1C(=O)N(C)C1CCc2nnc(C)n2CC1` (centres undefined), the RP-LC retention time was found to be 552 s.

`O=C(Nc1nc2c(s1)CN(S(=O)(=O)/C=C/c1ccccc1)CC2)c1cnccn1`: the RP-LC retention time came out at 780 s.

For the compound `COc1ccc(C2C(C(=O)NCc3ccccn3)c3cc(OC)c(OC)cc3C(=O)N2C)cc1` (centres undefined), the RP-LC retention time came out at 609 s.

As to `COc1ccc(C2Cn3nnc(-c4nc(-c5ccc(Br)cc5)no4)c3CO2)cc1` (centres undefined), the RP-LC retention time is 1260 s.

In the case of `CCNC(=O)N1CCCC(c2cccc(C(=O)NCc3ccccc3C)c2)C1` (centres undefined), the RP-LC retention time is 775 s.

In the case of `CCCc1noc(-c2ccc(-n3ncc(C(=O)NC(C)C)c3C)nc2)n1`, the RP-LC retention time is 970 s.

Turning to `COC(=O)c1ccc(C(=O)NCC2CCN(S(C)(=O)=O)CC2)cc1`, the RP-LC retention time came to 637 s.

The compound `Cc1nc([C@@H]2CN(C(=O)c3sccc3C)C[C@H]2C(N)=O)n[nH]1` registered an RP-LC retention time of 552 s.

Take `CC(C)CC(=O)N1CCCC1c1nc2ccccc2s1` (centres undefined): the RP-LC retention time was found to be 887 s.

`CN1C(=O)c2cc(C(=O)N3CCC(C(N)=O)CC3)nn2CC1(C)C(=O)NC1CCCC1` (centres undefined) came in with an RP-LC retention time of 888 s.

Regarding `CC(=O)c1cccc(NC(=O)c2nc(N(C)C)c3c(C)cc(C)nc3n2)c1`, the RP-LC retention time was determined as 564 s.

In the case of `CCOC(=O)CC1(NC(=O)N2CCC(c3nc4ccncc4n3C)C2)CCCCC1` (centres undefined), the RP-LC retention time is 553 s.

As to `O=c1n(Cc2ccccc2)nc2c(S(=O)(=O)N3CCc4ccccc4C3)cccn12`, the RP-LC retention time is 942 s.
